Reference: patent publication US20070004660A1, “Synergistic Modulation of Flt3 Kinase Using Alkylquinolines and Alkylquinazolines” (priority 2005, published 2007)
Where a name gives a salt, the structure may show the parent alone.

molecular target: T1, wild-type FLT3 receptor (Homo sapiens, UniProt P36888); assay: Cell-based FLT3 receptor ELISA (FLT ligand-induced phosphorylation in Baf3 FLT3 cells); conditions: 100 ng/mL Flt ligand, uncertainty ±20%
T1 construct: host or cells: Baf3 (murine B cell lymphoma line), stably transfected
T1 sequence (P36888 27-993): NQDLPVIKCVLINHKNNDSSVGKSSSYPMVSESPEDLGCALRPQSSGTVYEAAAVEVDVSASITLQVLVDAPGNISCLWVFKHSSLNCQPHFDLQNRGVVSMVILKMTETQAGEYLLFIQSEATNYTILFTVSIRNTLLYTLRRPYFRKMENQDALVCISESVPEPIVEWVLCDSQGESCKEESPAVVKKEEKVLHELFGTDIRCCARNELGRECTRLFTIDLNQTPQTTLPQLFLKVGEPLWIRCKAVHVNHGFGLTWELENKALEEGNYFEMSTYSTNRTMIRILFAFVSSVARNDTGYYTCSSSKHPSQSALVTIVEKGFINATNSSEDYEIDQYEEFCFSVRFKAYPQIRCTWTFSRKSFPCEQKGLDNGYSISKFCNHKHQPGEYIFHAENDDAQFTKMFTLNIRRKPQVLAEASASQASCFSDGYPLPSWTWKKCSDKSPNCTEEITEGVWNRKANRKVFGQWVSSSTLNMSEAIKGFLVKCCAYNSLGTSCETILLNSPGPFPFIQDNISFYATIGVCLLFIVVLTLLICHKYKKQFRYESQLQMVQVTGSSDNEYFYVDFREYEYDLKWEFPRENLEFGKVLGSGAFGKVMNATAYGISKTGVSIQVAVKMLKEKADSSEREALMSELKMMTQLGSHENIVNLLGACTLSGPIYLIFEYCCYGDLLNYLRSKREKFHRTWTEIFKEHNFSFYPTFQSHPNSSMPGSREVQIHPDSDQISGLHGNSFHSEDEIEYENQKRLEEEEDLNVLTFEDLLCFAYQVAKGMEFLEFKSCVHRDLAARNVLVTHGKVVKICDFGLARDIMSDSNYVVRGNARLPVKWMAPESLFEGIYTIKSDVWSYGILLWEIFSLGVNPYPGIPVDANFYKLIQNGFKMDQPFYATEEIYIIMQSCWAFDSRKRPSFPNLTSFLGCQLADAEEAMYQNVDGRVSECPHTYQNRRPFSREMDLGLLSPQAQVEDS
Outline: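 Receptor phosphotyrosine measured by sandwich ELISA (anti-FLT3 capture, HRP anti-pTyr, luminescence) in FLT3-transfected murine Baf3 cells given 1 h compound pretreatment and 10 min 100 ng/mL FLT ligand after overnight low-serum starvation; triplicates, IC50 from nonlinear regression.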

SMILES	IC50
COc1cc2ncnc(C3CCN(C(=O)Nc4ccc(CO)cc4)CC3)c2cc1OC [Example 22, 4-(6,7-Dimethoxy-quinazolin-4-yl)-piperidine-1-carboxylic acid (4-hydroxymethyl-phenyl)-amide]	5.1 µM
O=C(Nc1ccc(N2CCCC2)cc1)N1CCC(c2ncnc3cc(Oc4cccnc4)ccc23)CC1 [Example 174, 4-[7-(Pyridin-3-yloxy)-quinazolin-4-yl]-piperidine-1-carboxylic acid (4-pyrrolidin-1-yl-phenyl)-amide]	0.13 µM
O=C(Nc1ccc(N2CCCC2)cc1)N1CCC(c2ncnc3cc(N4CCOC4=O)ccc23)CC1 [Example 176, 4-[7-(2-Oxo-oxazolidin-3-yl)-quinazolin-4-yl]-piperidine-1-carboxylic acid (4-pyrrolidin-1-yl-phenyl)-amide]	0.007 µM
O=C(Nc1ccc(N2CCCC2)cc1)N1CCC(c2ncnc3cc(N4CCN(CCO)CC4)ccc23)CC1 [Compound 185, 4-{7-[4-(2-Hydroxy-ethyl)-piperazin-1-yl]-quinazolin-4-yl}-piperidine-1-carboxylic acid (4-pyrrolidin-1-yl-phenyl)-amide]	0.001 µM
CS(=O)(=O)N1CCN(CCCOc2ccc3c(C4CCN(C(=O)Nc5ccc(N6CCCC6)cc5)CC4)ncnc3c2)CC1 [Example 164, 4-{7-[3-(4-Methanesulfonyl-piperazin-1-yl)-propoxy]-quinazolin-4-yl}-piperidine-1-carboxylic acid (4-pyrrolidin-1-yl-phenyl)-amide]	0.011 µM
O=C(Nc1ccc(N2CCCC2)cc1)N1CCC(c2ncnc3cc(OCCO)ccc23)CC1 [Example 169, 4-[7-(2-Hydroxy-ethoxy)-quinazolin-4-yl]-piperidine-1-carboxylic acid (4-pyrrolidin-1-yl-phenyl)-amide]	0.002 µM
COc1cc2ncnc(C3CCN(C(=O)Nc4ccc(OC(C)C)cc4)CC3)c2cc1OC [Example 1, 4-(6,7-Dimethoxy-quinazolin-4-yl)-piperidine-1-carboxylic acid (4-isopropoxy-phenyl)-amide hydrochloride]	0.017 µM
CC(=O)N1CC[C@@H](Oc2ccc3c(C4CCN(C(=O)Nc5ccc(N6CCCC6)cc5)CC4)ncnc3c2)C1 [Example 154, (R)-4-[7-(1-Acetyl-pyrrolidin-3-yloxy)-quinazolin-4-yl]-piperidine-1-carboxylic acid (4-pyrrolidin-1-yl-phenyl)-amide]	0.002 µM
COCCN1CCN(c2ccc3c(C4CCN(C(=O)Nc5ccc(N6CCCC6)cc5)CC4)ncnc3c2)CC1 [Compound 186, 4-{7-[4-(2-Methoxy-ethyl)-piperazin-1-yl]-quinazolin-4-yl}-piperidine-1-carboxylic acid (4-pyrrolidin-1-yl-phenyl)-amide]	0.003 µM
COc1cc2ncnc(C3CCN(C(=O)Nc4ccc(C5CCCCC5)cc4)CC3)c2cc1OC [Example 21, 4-(6,7-Dimethoxy-quinazolin-4-yl)-piperidine-1-carboxylic acid (4-cyclohexyl-phenyl)-amide]	0.002 µM
CN1CCN(CCOc2ccc3c(C4CCN(C(=O)Nc5ccc(N6CCCC6)cc5)CC4)ncnc3c2)CC1 [Example 157, 4-{7-[2-(4-Methyl-piperazin-1-yl)-ethoxy]-quinazolin-4-yl}-piperidine-1-carboxylic acid (4-pyrrolidin-1-yl-phenyl)-amide]	0.016 µM
CC(=O)N1CCC(COc2ccc3c(C4CCN(C(=O)Nc5ccc(N6CCCC6)cc5)CC4)ncnc3c2)CC1 [Example 163, 4-[7-(1-Acetyl-piperidin-4-ylmethoxy)-quinazolin-4-yl]-piperidine-1-carboxylic acid (4-pyrrolidin-1-yl-phenyl)-amide]	0.118 µM
CCN(CC)CCCOc1ccc2c(C3CCN(C(=O)Nc4ccc(N5CCOCC5)cc4)CC3)ncnc2c1 [Example 134, 4-[7-(3-Diethylamino-propoxy)-quinazolin-4-yl]-piperidine-1-carboxylic acid (4-morpholin-4-yl-phenyl)-amide]	0.031 µM
O=C(Nc1ccc(N2CCCC2)cc1)N1CCC(c2ncnc3cc(OCCN4CCC[C@H]4CO)ccc23)CC1 [Example 152, (S)-4-{7-[2-(2-Hydroxymethyl-pyrrolidin-1-yl)-ethoxy]-quinazolin-4-yl}-piperidine-1-carboxylic acid (4-pyrrolidin-1-yl-phenyl)-amide]	0.042 µM
CC(=O)N1CCC[C@H]1COc1ccc2c(C3CCN(C(=O)Nc4ccc(N5CCCC5)cc4)CC3)ncnc2c1 [Example 162, (S)-4-[7-(1-Acetyl-pyrrolidin-2-ylmethoxy)-quinazolin-4-yl]-piperidine-1-carboxylic acid (4-pyrrolidin-1-yl-phenyl)-amide]	0.01 µM
O=C(Nc1ccc(N2CCOCC2)cc1)N1CCC(c2ncnc3cc(N4CCC(F)CC4)ccc23)CC1 [Compound 196, 4-[7-(4-Fluoro-piperidin-1-yl)-quinazolin-4-yl]-piperidine-1-carboxylic acid (4-morpholin-4-yl-phenyl)-amide]	0.003 µM
O=C(Nc1ccc(N2CCCC2)cc1)N1CCC(c2ncnc3cc(N4CCNC4=O)ccc23)CC1 [Compound 178, 4-[7-(2-Oxo-imidazolidin-1-yl)-quinazolin-4-yl]-piperidine-1-carboxylic acid (4-pyrrolidin-1-yl-phenyl)-amide]	0.004 µM
O=C(Nc1ccc(N2CCCC2)cc1)N1CCC(c2ncnc3cc(N4CCSCC4)ccc23)CC1 [Compound 182, 4-(7-Thiomorpholin-4-yl-quinazolin-4-yl)-piperidine-1-carboxylic acid (4-pyrrolidin-1-yl-phenyl)-amide]	0.024 µM
CC(=O)N1CC(Oc2ccc3c(C4CCN(C(=O)Nc5ccc(N6CCCC6)cc5)CC4)ncnc3c2)C1 [Example 170, 4-[7-(1-Acetyl-azetidin-3-yloxy)-quinazolin-4-yl]-piperidine-1-carboxylic acid (4-pyrrolidin-1-yl-phenyl)-amide]	0.004 µM
CN(C)CC(=O)N1CCN(c2ccc3c(C4CCN(C(=O)Nc5ccc(N6CCOCC6)cc5)CC4)ncnc3c2)CC1 [Example 144, 4-{7-[4-(2-Dimethylamino-acetyl)-piperazin-1-yl]-quinazolin-4-yl}-piperidine-1-carboxylic acid (4-morpholin-4-yl-phenyl)-amide]	0.17 µM
O=C(Nc1ccc(N2CCOCC2)cc1)N1CCC(c2ncnc3cc(N4CCNCC4)ccc23)CC1 [Example 140, 4-(7-Piperazin-1-yl-quinazolin-4-yl)-piperidine-1-carboxylic acid (4-morpholin-4-yl-phenyl)-amide]	0.031 µM
CC(=O)N1CCN(c2ccc3c(C4CCN(C(=O)Nc5ccc(N6CCCC6)cc5)CC4)ncnc3c2)CC1 [Example 166, 4-[7-(4-Acetyl-piperazin-1-yl)-quinazolin-4-yl]-piperidine-1-carboxylic acid (4-pyrrolidin-1-yl-phenyl)-amide]	0.016 µM
O=C(Nc1ccc(N2CCCC2)cc1)N1CCC(c2ncnc3cc(N4CCN(c5ccccn5)CC4)ccc23)CC1 [Compound 192, 4-[7-(4-Pyridin-2-yl-piperazin-1-yl)-quinazolin-4-yl]-piperidine-1-carboxylic acid (4-pyrrolidin-1-yl-phenyl)-amide]	0.001 µM
CN1CCCN(c2ccc3c(C4CCN(C(=O)Nc5ccc(N6CCOCC6)cc5)CC4)ncnc3c2)CC1 [Example 138, 4-[7-(4-Methyl-[1,4]diazepan-1-yl)-quinazolin-4-yl]-piperidine-1-carboxylic acid (4-morpholin-4-yl-phenyl)-amide]	0.107 µM
O=C(Nc1ccc(N2CCCC2)cc1)N1CCC(c2ncnc3cc(OCC4CCOCC4)ccc23)CC1 [Compound 188, 4-[7-(Tetrahydro-pyran-4-ylmethoxy)-quinazolin-4-yl]-piperidine-1-carboxylic acid (4-pyrrolidin-1-yl-phenyl)-amide]	0.093 µM
COc1cc2ncnc(C3CCN(C(=O)Nc4ccc(N5CCOCC5)cc4)CC3)c2cc1OC [Example 18, 4-(6,7-Dimethoxy-quinazolin-4-yl)-piperidine-1-carboxylic acid (4-morpholin-4-yl-phenyl)-amide]	0.104 µM
O=C(Nc1ccc(N2CCOCC2)cc1)N1CCC(c2ncnc3cc(N4CCN(CCO)CC4)ccc23)CC1 [Example 137, 4-{7-[4-(2-Hydroxy-ethyl)-piperazin-1-yl]-quinazolin-4-yl}-piperidine-1-carboxylic acid (4-morpholin-4-yl-phenyl)-amide]	0.041 µM
